# Laboratory results: patent US12655116B2, “Substituted isophthalic acid diamides” (Bayer Aktiengesellschaft, priority 2020, dated 2026)
# Assays:
# ECHCG [1] = assay: Post-emergence herbicidal action against ECHCG; assay type: in vivo, Echinochloa crus-galli
# Method in brief: (§1)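 Herbicidal effect was scored visually in percent after about 3 weeks in the greenhouse. Plants had been raised in sandy loam and treated post-emergence at the one-leaf stage with formulated compound at 600 to 800 l/ha water plus 0.2% wetting agent.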
# SETVI [2] = assay: Pre-emergence herbicidal action against SETVI; assay type: in vivo, Setaria viridis
# Method in brief: (§2)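 Herbicidal effect was assessed 3 weeks after treatment by visual comparison with untreated controls, 100% denoting dead plants. Aqueous WP or EC preparations had been applied at 600 to 800 l/ha with 0.2% wetting agent to the soil covering freshly sown seeds.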
# VERPE [3] = assay: Pre-emergence herbicidal action against VERPE; assay type: in vivo, Veronica persica; conditions: Veronica persica, 504 h, dosage 80 g/ha
# Method in brief: as §2
# ECHCG [4] = assay: Pre-emergence herbicidal action against ECHCG; assay type: in vivo, Echinochloa crus-galli; conditions: 80 g/ha
# Method in brief: as §2
# POLCO [5] = assay: Pre-emergence herbicidal action against POLCO; assay type: in vivo, Polygonum convolvulus; conditions: dosage 80 g/ha
# Method in brief: as §2
# VERPE [6] = assay: Post-emergence herbicidal action against VERPE; assay type: in vivo, Veronica persica; conditions: Veronica persica, 504 h
# Method in brief: as §1
# ABUTH [7] = assay: Pre-emergence herbicidal action against ABUTH; assay type: in vivo, Abutilon theophrasti
# Method in brief: as §2
# ALOMY [8] = assay: Pre-emergence herbicidal action against ALOMY; assay type: in vivo, Alopecurus myosuroides
# Method in brief: as §2
# POLCO [9] = assay: Post-emergence herbicidal action against POLCO; assay type: in vivo, Polygonum convolvulus; conditions: dosage 20 g/ha
# Method: Seeds of monocotyledonous and dicotyledonous weed and crop plants are laid out in sandy loam soil in wood-fiber pots, covered with soil and cultivated in a greenhouse under good growth conditions. 2 to 3 weeks after sowing, the test plants are treated at the one-leaf stage. The compounds of the invention, formulated in the form of wettable powders (WP) or as emulsion concentrates (EC), are then sprayed onto the green parts of the plants in the form of an aqueous suspension or emulsion at a water application rate equivalent to 600 to 800 l/ha, with addition of 0.2% wetting agent. After the test plants have been left to stand in the greenhouse under optimal growth conditions for about 3 weeks, the action of the preparations is assessed visually in comparison to untreated controls (herbicidal action in percent (%): 100% activity=the plants have died, 0% activity=like control plants). […] The tables below illustrate, in an illustrative manner, the post-emergence herbicidal action of the compounds of the invention, the herbicidal activity being stated in percent.
# MATIN [10] = assay: Pre-emergence herbicidal action against MATIN; assay type: in vivo, Matricaria inodora
# Method in brief: as §2
# DIGSA = assay: Pre-emergence herbicidal action against DIGSA; assay type: in vivo, Digitaria sanguinalis
# Method in brief: as §2
# SETVI [11] = assay: Post-emergence herbicidal action against SETVI; assay type: in vivo, Setaria viridis; conditions: dosage 20 g/ha
# Method in brief: as §1
# PHBPU [12] = assay: Post-emergence herbicidal action against PHBPU; assay type: in vivo, Pharbitis purpurea; conditions: dosage 20 g/ha
# Method in brief: as §1
# PHBPU [13] = assay: Pre-emergence herbicidal action against PHBPU; assay type: in vivo, Pharbitis purpurea; conditions: dosage 80 g/ha
# Method in brief: as §2
# AMARE = assay: Pre-emergence herbicidal action against AMARE; assay type: in vivo, Amaranthus retroflexus
# Method in brief: as §2
# MATIN [14] = assay: Post-emergence herbicidal action against MATIN; assay type: in vivo, Matricaria inodora
# Method in brief: as §1
# ABUTH [15] = assay: Post-emergence herbicidal action against ABUTH; assay type: in vivo, Abutilon theophrasti; conditions: Abutilon theophrasti, 504 h, visual assessment about 3 weeks after treatment vs untreated controls
# Method in brief: as §1
# VIOTR [16] = assay: Pre-emergence herbicidal action against VIOTR; assay type: in vivo, Viola tricolor
# Method in brief: as §2
# VIOTR [17] = assay: Post-emergence herbicidal action against VIOTR; assay type: in vivo, Viola tricolor
# Method in brief: as §1
# ALOMY [18] = assay: Post-emergence herbicidal action against ALOMY; assay type: in vivo, Alopecurus myosuroides; conditions: dosage 20 g/ha, visual assessment about 3 weeks after treatment vs untreated controls
# Method in brief: as §1
# AVEFA = assay: Pre-emergence herbicidal action against AVEFA; assay type: in vivo, Avena fatua; conditions: 80 g/ha, pre-emergence
# Method in brief: as §2
# [19] = Tripleurospermum inodorum, 504 h, dosage 20 g/ha
# [20] = 80 g/ha, scored visually after 3 weeks vs untreated controls (100% = plants have died, 0% = like control plants)
structure (smiles),measurement,setting,value
COc1c(C(=O)Nc2nnnn2C)ccc(C(F)F)c1C(=O)NC1CC1 [Example 1-74],pest or weed control at 5 g/ha,"ECHCG [1]; Echinochloa crus-galli, 504 h, dosage 5 g/ha",80%
same,pest or weed control at 20 g/ha,"ECHCG [1]; Echinochloa crus-galli, 504 h, dosage 20 g/ha",80%
same,pest or weed control at 20 g/ha,"SETVI [2]; Setaria viridis, 504 h, dosage 20 g/ha",100%
same,pest or weed control at 80 g/ha,"SETVI [2]; Setaria viridis, 504 h, dosage 80 g/ha",100%
same,pest or weed control at 80 g/ha,VERPE [3],100%
same,pest or weed control at 80 g/ha,"ECHCG [4]; Echinochloa crus-galli, 504 h",100%
same,pest or weed control at 80 g/ha,"POLCO [5]; Fallopia convolvulus, 504 h",80%
same,pest or weed control at 5 g/ha,VERPE [6]; 5 g/ha,80%
same,pest or weed control at 20 g/ha,VERPE [6]; 20 g/ha,90%
same,pest or weed control at 80 g/ha,"ABUTH [7]; Abutilon theophrasti, 504 h, 80 g/ha, scored visually after 3 weeks vs untreated controls (100% = plants have died, 0% = like control plants)",100%
same,pest or weed control at 20 g/ha,"ABUTH [7]; Abutilon theophrasti, 504 h, dosage 20 g/ha, scored visually after 3 weeks vs untreated controls, 100% = plants have died, 0% = like control plants, read-out: Pre-emergence action against ABUTH (herbicidal activity in percent)",100%
same,pest or weed control at 80 g/ha,"ALOMY [8]; Alopecurus myosuroides, 504 h, 80 g/ha, pre-emergence, scored visually after 3 weeks vs untreated controls (100% = plants have died, 0% = like control plants)",90%
same,pest or weed control at 20 g/ha,"POLCO [9]; Fallopia convolvulus, 504 h",80%
same,pest or weed control at 20 g/ha,MATIN [10]; [19],100%
same,pest or weed control at 80 g/ha,"MATIN [10]; Tripleurospermum inodorum, 504 h, dosage 80 g/ha",100%
same,pest or weed control at 20 g/ha,"DIGSA; Digitaria sanguinalis, 504 h, dosage 20 g/ha",100%
same,pest or weed control at 80 g/ha,"DIGSA; Digitaria sanguinalis, 504 h, dosage 80 g/ha",100%
same,pest or weed control at 20 g/ha,"SETVI [11]; Setaria viridis, 504 h",100%
same,pest or weed control at 20 g/ha,"PHBPU [12]; Ipomoea purpurea, 504 h",90%
same,pest or weed control at 80 g/ha,"PHBPU [13]; Ipomoea purpurea, 504 h",100%
same,pest or weed control at 20 g/ha,"AMARE; Amaranthus retroflexus, 504 h, 20 g/ha, scored visually after 3 weeks vs untreated controls, 100% = plants have died, 0% = like control plants",100%
same,pest or weed control at 80 g/ha,"AMARE; Amaranthus retroflexus, 504 h, 80 g/ha, scored visually after 3 weeks vs untreated controls, 100% = plants have died, 0% = like control plants",100%
same,pest or weed control at 5 g/ha,"MATIN [14]; Tripleurospermum inodorum, 504 h, dosage 5 g/ha",80%
same,pest or weed control at 20 g/ha,MATIN [14]; [19],90%
same,pest or weed control at 5 g/ha,ABUTH [15]; dosage 5 g/ha,80%
same,pest or weed control at 20 g/ha,ABUTH [15]; dosage 20 g/ha,80%
same,pest or weed control at 20 g/ha,"VIOTR [16]; Viola tricolor, 504 h, dosage 20 g/ha",100%
same,pest or weed control at 80 g/ha,"VIOTR [16]; Viola tricolor, 504 h, dosage 80 g/ha",100%
same,pest or weed control at 5 g/ha,"VIOTR [17]; Viola tricolor, 504 h, 5 g/ha",80%
same,pest or weed control at 20 g/ha,"VIOTR [17]; Viola tricolor, 504 h, 20 g/ha",90%
CCn1nnnc1NC(=O)c1ccc(Br)c(C(=O)NCC2CC2)c1Cl [Example 2-180],Post-emergence action against ECHCG in %,ECHCG [1]; dosage 20 g/ha,90%
same,Pre-emergence action against SETVI in %,SETVI [2]; dosage 80 g/ha,100%
same,Pre-emergence action against ECHCG in %,ECHCG [4],100%
same,Pre-emergence action against POLCO in %,POLCO [5],90%
same,Post-emergence action against ALOMY in %,ALOMY [18],90%
same,Pre-emergence action against AVEFA in %,AVEFA,80%
same,Pre-emergence action against ABUTH (herbicidal activity),ABUTH [7]; [20],100%
same,Pre-emergence action against ABUTH (herbicidal activity in percent),"ABUTH [7]; dosage 20 g/ha, scored visually after 3 weeks vs untreated controls, 100% = plants have died, 0% = like control plants",100%
same,Pre-emergence action against ALOMY,"ALOMY [8]; 20 g/ha, scored visually after 3 weeks, 100% = plants have died, 0% = like control plants",80%
same,Pre-emergence action against ALOMY (herbicidal activity),"ALOMY [8]; 80 g/ha, pre-emergence, scored visually after 3 weeks vs untreated controls (100% = plants have died, 0% = like control plants)",100%
same,Post-emergence action against POLCO in %,POLCO [9],100%
same,Pre-emergence action against MATIN in %,MATIN [10]; dosage 20 g/ha,100%
same,Pre-emergence action against MATIN in %,MATIN [10]; dosage 80 g/ha,100%
same,Pre-emergence action against DIGSA in %,DIGSA; dosage 20 g/ha,100%
same,Pre-emergence action against DIGSA in %,DIGSA; dosage 80 g/ha,100%
same,Post-emergence action against SETVI in %,SETVI [11],90%
same,Post-emergence action against PHBPU in %,PHBPU [12],90%
same,Pre-emergence action against PHBPU in %,PHBPU [13],100%
same,Pre-emergence action against AMARE in %,"AMARE; 20 g/ha, scored visually after 3 weeks vs untreated controls, 100% = plants have died, 0% = like control plants",100%
same,Pre-emergence action against AMARE in %,AMARE; [20],100%
same,Post-emergence action against MATIN in %,MATIN [14]; dosage 20 g/ha,80%
same,Pre-emergence action against VIOTR in %,VIOTR [16]; dosage 20 g/ha,100%
same,Pre-emergence action against VIOTR in %,VIOTR [16]; dosage 80 g/ha,100%
same,Post-emergence action against VIOTR in %,VIOTR [17]; 20 g/ha,100%
